Source: ChEMBL document CHEMBL4261621, “Synthesis of enamino-2-oxindoles via conjugate addition between α-azido ketones and 3-alkenyl oxindoles: Cytotoxicity evaluation and apoptosis inducing studies” (Bioorg Med Chem Lett, 2018)

What was measured:
HeLa [1] = test: Cytotoxicity against human HeLa cells after 72 hrs by MTT assay; format: functional, cell-based
HCT-116 [2] = test: Cytotoxicity against human HCT116 cells after 72 hrs by MTT assay; format: functional, cell-based; settings: HCT-116, 72 h
A549 [3] = test: Cytotoxicity against human A549 cells after 72 hrs by MTT assay; format: functional, cell-based; settings: A549, 72 h
HCT-15 [4] = test: Cytotoxicity against human HCT15 cells after 72 hrs by MTT assay; format: functional, cell-based; settings: HCT-15, 72 h
NCI-H460 [5] = test: Cytotoxicity against human NCI-H460 cells after 72 hrs by MTT assay; format: functional, cell-based; settings: NCI-H460, 72 h
MDA-MB-231 [6] = test: Cytotoxicity against human MDA-MB-231 cells after 72 hrs by MTT assay; format: functional, cell-based; settings: MDA-MB-231, 72 h
HeLa [7] = test: Cytotoxicity against human HeLa cells at 30 uM after 48 hrs by MTT assay relative to control; format: functional
A549 [8] = test: Cytotoxicity against human A549 cells at 30 uM after 48 hrs by MTT assay relative to control; format: functional
MDA-MB-231 [9] = test: Cytotoxicity against human MDA-MB-231 cells at 30 uM after 48 hrs by MTT assay relative to control; format: functional
HCT-116 [10] = test: Cytotoxicity against human HCT116 cells at 30 uM after 48 hrs by MTT assay relative to control; format: functional
NCI-H460 [11] = test: Cytotoxicity against human NCI-H460 cells at 30 uM after 48 hrs by MTT assay relative to control; format: functional
HCT-15 [12] = test: Cytotoxicity against human HCT15 cells at 30 uM after 48 hrs by MTT assay relative to control; format: functional

Row | Structure (SMILES) | IC50 (HeLa [1]) [µM] | IC50 (HCT-116 [2]) [µM] | IC50 (A549 [3]) [µM] | IC50 (HCT-15 [4]) [µM] | IC50 (NCI-H460 [5]) [µM] | IC50 (MDA-MB-231 [6]) [µM] | Activity (HeLa [7]) [%] | Activity (A549 [8]) [%] | Activity (MDA-MB-231 [9]) [%] | Activity (HCT-116 [10]) [%] | Activity (NCI-H460 [11]) [%] | Activity (HCT-15 [12]) [%]
1 | O=c1[nH]cc(F)c(=O)[nH]1 [FLUOROURACIL] | 10.8 | 11.6 | 4.3 | 11.9 | 11.8 | 21.1 |  |  |  |  |  | 
2 | COC(=O)/C(=C(\N)C(=O)c1ccccc1)C1C(=O)N(Cc2ccccc2)c2ccc(C)cc21 (stereo unspecified) | 6.28 | 3.31 | 6.6 | 2.67 | 1.51 | 13.9 | >50 | >50 | >50 | >50 | >50 | >50
3 | CCOC(=O)/C(=C(\N)C(=O)c1ccc(OC)cc1)C1C(=O)N(Cc2ccccc2)c2ccc(Cl)cc21 (stereo unspecified) | 3.72 | 3.82 | 3.25 | 3.15 | 3.32 | 6.96 | >50 | >50 | >50 | >50 | >50 | >50
4 | CCOC(=O)/C(=C(\N)C(=O)c1ccccc1)C1C(=O)N(Cc2ccccc2)c2ccc(Br)cc21 (stereo unspecified) | 25.6 | 28.7 | 27.7 | 26.1 | 18.5 | 28.2 | >50 | >50 | >50 | >50 | >50 | >50
5 | COC(=O)/C(=C(\N)C(=O)c1ccccc1)C1C(=O)Nc2ccc(Br)cc21 (stereo unspecified) | 12.2 | 25.9 | 13 | 28.5 | 27.6 | 6.85 | >50 | >50 | >50 | >50 | >50 | >50
6 | CCOC(=O)/C(=C(\N)C(=O)c1ccccc1)C1C(=O)N(Cc2ccc(Br)cc2)c2ccccc21 (stereo unspecified) | 7.28 | 3.26 | 3.23 | 3.17 | 3.9 | 7.13 | >50 | >50 | >50 | >50 | >50 | >50
